Measured values from PubChem BioAssay (NCI).
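Values below derive from 48-hour exposures of cells grown in 96-well plates, with endpoints linearly interpolated between the two concentrations bracketing the appropriate inhibition level. Here, GI50 denotes the concentration required for 50% inhibition of growth. TGI is the concentration that stops growth completely.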

Legend:
Test in all cases: DTP human tumour cell line panel, 48 h
HOP-92 NSCLC = tested on: HOP-92 NSCLC
NCI-H23 lung = tested on: NCI-H23 lung
SR leukemia = tested on: SR leukemia
COLO 205 colon = tested on: COLO 205 colon
T-47D breast = tested on: T-47D breast
MDA-MB-231 breast = tested on: MDA-MB-231 breast
HCT-116 colon = tested on: HCT-116 colon
HL-60(TB) leukemia = tested on: HL-60(TB) leukemia
SN12C renal = tested on: SN12C renal
CAKI-1 renal = tested on: CAKI-1 renal
SK-MEL-2 melanoma = tested on: SK-MEL-2 melanoma
SF-539 CNS = tested on: SF-539 CNS
NCI-H522 lung = tested on: NCI-H522 lung
786-0 renal = tested on: 786-0 renal
LOX IMVI melanoma = tested on: LOX IMVI melanoma
SNB-19 CNS = tested on: SNB-19 CNS
HOP-62 NSCLC = tested on: HOP-62 NSCLC
BT-549 breast = tested on: BT-549 breast
OVCAR-5 ovarian = tested on: OVCAR-5 ovarian
SF-268 CNS = tested on: SF-268 CNS
SK-MEL-28 melanoma = tested on: SK-MEL-28 melanoma
NCI/ADR-RES ovarian = tested on: NCI/ADR-RES ovarian
CCRF-CEM leukemia = tested on: CCRF-CEM leukemia
HS 578T breast = tested on: HS 578T breast
OVCAR-8 ovarian = tested on: OVCAR-8 ovarian
NCI-H226 lung = tested on: NCI-H226 lung
A549 NSCLC = tested on: A549 NSCLC
UACC-257 melanoma = tested on: UACC-257 melanoma
MALME-3M melanoma = tested on: MALME-3M melanoma

With `CC(C)(C)c1[nH]nc2c1C(c1cc3ccccc3[nH]c1=O)Nc1cc(C(=O)Nc3ccc(Cl)cc3)ccc1N2` (configuration not stated) as the molecule, how does the GI50 (HOP-92 NSCLC) read?
Its GI50 is 2030 nM.

And the TGI (HOP-92 NSCLC)?
Its TGI is 6.05 µM.

What about the GI50 (NCI-H23 lung) of the same molecule?
Its GI50 is 2600 nM.

What about the TGI (NCI-H23 lung) of the same molecule?
Its TGI is 7.31 µM.

And the GI50 (SR leukemia)?
Its GI50 is 2560 nM.

What about the TGI (SR leukemia) of the same molecule?
The TGI was over 24.9 µM.

What about the GI50 (COLO 205 colon) of the same molecule?
Its GI50 is 2880 nM.

And the TGI (COLO 205 colon)?
The TGI was 6.46 µM.

What about the GI50 (T-47D breast) of the same molecule?
The GI50 was 2500 nM.

And the TGI (T-47D breast)?
The TGI was 9.14 µM.

What about the GI50 (MDA-MB-231 breast) of the same molecule?
Its GI50 is 2260 nM.

What about the TGI (MDA-MB-231 breast) of the same molecule?
Its TGI is 6.32 µM.

And the GI50 (HCT-116 colon)?
The GI50 was 3.11 µM.

And the TGI (HCT-116 colon)?
The TGI was 10.7 µM.

What about the GI50 (HL-60(TB) leukemia) of the same molecule?
The GI50 was 2330 nM.

And the TGI (HL-60(TB) leukemia)?
Its TGI is 5.64 µM.

What about the GI50 (SN12C renal) of the same molecule?
Its GI50 is 3.15 µM.

And the TGI (SN12C renal)?
Its TGI is 14 µM.

And the GI50 (CAKI-1 renal)?
Its GI50 is over 100 µM.

And the TGI (CAKI-1 renal)?
Its TGI is over 100 µM.

And the GI50 (SK-MEL-2 melanoma)?
Its GI50 is 2000 nM.

What about the TGI (SK-MEL-2 melanoma) of the same molecule?
The TGI was 4.05 µM.

What about the GI50 (SF-539 CNS) of the same molecule?
The GI50 was 2340 nM.

What about the TGI (SF-539 CNS) of the same molecule?
The TGI was 6.49 µM.

And the GI50 (NCI-H522 lung)?
Its GI50 is 2710 nM.

And the TGI (NCI-H522 lung)?
Its TGI is 6.94 µM.

And the GI50 (786-0 renal)?
The GI50 was 2300 nM.

What about the TGI (786-0 renal) of the same molecule?
The TGI was 5.54 µM.

What about the GI50 (LOX IMVI melanoma) of the same molecule?
The GI50 was 2980 nM.

What about the TGI (LOX IMVI melanoma) of the same molecule?
The TGI was 9.21 µM.

What about the GI50 (SNB-19 CNS) of the same molecule?
Its GI50 is 2680 nM.

What about the TGI (SNB-19 CNS) of the same molecule?
The TGI was 11.9 µM.

What about the GI50 (HOP-62 NSCLC) of the same molecule?
The GI50 was 3.14 µM.

What about the TGI (HOP-62 NSCLC) of the same molecule?
The TGI was 10 µM.

And the GI50 (BT-549 breast)?
Its GI50 is 2370 nM.

And the TGI (BT-549 breast)?
Its TGI is 6.65 µM.

What about the GI50 (OVCAR-5 ovarian) of the same molecule?
The GI50 was 3.84 µM.

And the TGI (OVCAR-5 ovarian)?
Its TGI is 39 µM.

What about the GI50 (SF-268 CNS) of the same molecule?
The GI50 was 3.66 µM.

And the TGI (SF-268 CNS)?
The TGI was 29.5 µM.

What about the GI50 (SK-MEL-28 melanoma) of the same molecule?
Its GI50 is 3.76 µM.

And the TGI (SK-MEL-28 melanoma)?
Its TGI is 21.5 µM.

What about the GI50 (NCI/ADR-RES ovarian) of the same molecule?
Its GI50 is over 100 µM.

And the TGI (NCI/ADR-RES ovarian)?
Its TGI is over 100 µM.

And the GI50 (CCRF-CEM leukemia)?
Its GI50 is 2160 nM.

And the TGI (CCRF-CEM leukemia)?
The TGI was over 21.6 µM.

And the GI50 (HS 578T breast)?
Its GI50 is 2380 nM.

What about the TGI (HS 578T breast) of the same molecule?
The TGI was over 28.8 µM.

What about the GI50 (OVCAR-8 ovarian) of the same molecule?
The GI50 was 3.04 µM.

What about the TGI (OVCAR-8 ovarian) of the same molecule?
Its TGI is 11 µM.

What about the GI50 (NCI-H226 lung) of the same molecule?
The GI50 was 2940 nM.

And the TGI (NCI-H226 lung)?
The TGI was 11.1 µM.

And the GI50 (A549 NSCLC)?
The GI50 was 4.66 µM.

What about the TGI (A549 NSCLC) of the same molecule?
Its TGI is over 100 µM.

And the GI50 (UACC-257 melanoma)?
Its GI50 is 2330 nM.

What about the TGI (UACC-257 melanoma) of the same molecule?
Its TGI is 7.31 µM.

What about the GI50 (MALME-3M melanoma) of the same molecule?
Its GI50 is 1920 nM.
